Molecules are shown by their SMILES. Read-outs that look alike come from different tables or passages of the source. A value given as a limit tells only on which side of the number the result lay.

The term IC50 denotes the concentration needed to halve the response being measured.

In data set [1] the target is T1, ALDH3A1 (Homo sapiens (Human), UniProt P30838).
Method: (§1) The enzymatic activity of ALDH1A1, ALDH2 and ALDH3A1 were measured as described previously^[30,34,37,39].
(§2) All reactions were initiated by the addition of the aldehyde substrate. The inhibition curves were fit to the Logistic four parameter IC50 equation using the SigmaPlot (v11, StatSys). We characterized the mode of inhibition using steady-state kinetics through co-variation of inhibitor and substrate concentrations. The steady state kinetic measurements were performed in 100 mM Na2HPO4 buffer, pH 7.5. […] In all cases—including the control reactions lacking inhibitors, the final reaction mixture contained 2% (v/v) DMSO. The reaction was initiated by addition of substrate and the initial rate of product formation was determined on a Beckman DU-640. All data were fit to the non-linear velocity expressions for competitive, non-competitive, mixed-type non-competitive and uncompetitive inhibition^[40]. Appropriateness of the inhibition model was determined through analysis of goodness-of-fit and the residuals of those fits. Lineweaver-Burke plots were created using SigmaPlot (v11, StatSys) to visualize the inhibition patterns. All data represent the average of three independent experiments utilizing triplicate assays at each concentration point.
(§3) ALDH1A1, ALDH2 and ALDH3A1 activities were measured as described earlier^33,44,45. […] Reaction was initiated by the addition of the aldehyde substrate. […] The inhibition curves were fit to the Logistic four parameter IC50 equation using the SigmaPlot (v11, StatSys). Steady state kinetic experiments were performed by co-varying inhibitor and substrate concentrations. The steady state kinetic measurements were performed in 100 mM Na2HPO4 buffer, pH 7.5.
Data set [2] deals with T1, ALDH3A1. Description: biochemical. The note with it: read-out: % activity left after treating with 10 micromolar inhibitor ALDH3A1.
Method: as §1, §2, §3
Data set [3] can be described thus: Solubility. Format: physicochemical. The note with it: for concentration of homogenous solution easily formed: in the presence of […] DMSO.
The target in data set [4] is ALDH2 (Homo sapiens (Human), UniProt P05091). Description: ALDH2 dehydrogenase activity / IC50 determination (propionaldehyde substrate). Format: biochemical. The conditions noted are these: for IC50: Table 4, hits from ChemDiv screen, NI not defined, read-out: IC50 (micromolar) ALDH2; for inhibitory potential toward ALDH2 activity in vitro (in words): CB29 analogs.
ALDH2, sequence (P05091 18-517): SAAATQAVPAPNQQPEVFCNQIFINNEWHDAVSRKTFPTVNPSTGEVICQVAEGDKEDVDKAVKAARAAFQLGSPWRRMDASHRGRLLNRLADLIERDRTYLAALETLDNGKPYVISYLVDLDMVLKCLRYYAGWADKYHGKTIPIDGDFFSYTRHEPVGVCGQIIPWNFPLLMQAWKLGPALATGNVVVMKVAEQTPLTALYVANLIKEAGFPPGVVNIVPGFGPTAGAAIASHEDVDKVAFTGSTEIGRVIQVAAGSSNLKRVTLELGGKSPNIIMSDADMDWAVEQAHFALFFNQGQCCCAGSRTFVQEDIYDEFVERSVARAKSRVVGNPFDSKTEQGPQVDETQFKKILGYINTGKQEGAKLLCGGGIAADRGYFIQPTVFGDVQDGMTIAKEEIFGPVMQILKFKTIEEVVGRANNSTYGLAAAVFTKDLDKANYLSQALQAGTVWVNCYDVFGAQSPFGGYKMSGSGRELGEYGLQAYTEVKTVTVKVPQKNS
Method: The enzymatic activity of ALDH1A1, ALDH2 and ALDH3A1 were measured as described previously^[30,34,37,39]. The specific activities of the purified proteins were 1.9, 3.8 and 32 μmole/min/mg for ALDH1A1, ALDH2 and ALDH3A1 respectively.
as §2, §3
The target of data set [5] is ALDH1A1 (Homo sapiens (Human), UniProt P00352). Description: ALDH1A1 dehydrogenase activity / IC50 determination (propionaldehyde substrate). The conditions noted are these: for IC50: Table 4, hits from ChemDiv screen, read-out: IC50 (micromolar) ALDH1A1; for inhibitory potential / activity toward ALDH1A1 in vitro (in words): CB29 analogs. In kind it is biochemical.
ALDH1A1, sequence (P00352 whole entry): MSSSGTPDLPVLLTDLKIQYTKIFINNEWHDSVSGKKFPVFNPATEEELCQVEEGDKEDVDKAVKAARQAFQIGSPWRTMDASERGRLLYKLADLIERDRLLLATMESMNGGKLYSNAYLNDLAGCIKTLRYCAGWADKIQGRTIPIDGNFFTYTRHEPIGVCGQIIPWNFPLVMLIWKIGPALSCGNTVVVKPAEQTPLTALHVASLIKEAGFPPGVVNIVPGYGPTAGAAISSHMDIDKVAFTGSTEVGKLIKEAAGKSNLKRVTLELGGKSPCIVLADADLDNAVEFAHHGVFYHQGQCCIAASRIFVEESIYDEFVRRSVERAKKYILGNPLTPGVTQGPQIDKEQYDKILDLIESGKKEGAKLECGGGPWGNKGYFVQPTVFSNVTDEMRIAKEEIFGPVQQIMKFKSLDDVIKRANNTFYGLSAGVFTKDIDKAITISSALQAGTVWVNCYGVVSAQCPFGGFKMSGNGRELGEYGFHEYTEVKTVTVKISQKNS
Method: as §1, §2, §3
Data set [6] concerns A549 cells. Description: MTT assay for cell proliferation / mafosfamide sensitivity, A549. In kind it is cell-based. The note with it: FIG. 4A; for effect on cell proliferation as single agent (in words), A549: 50 μM inhibitor. (In general: Tetrazolium dyes change colour on reduction, which living cells bring about.)
Data set [7] relates to SF767 cells. Description: MTT assay for cell proliferation / mafosfamide sensitivity, SF767. The note with it: for effect on cell proliferation as single agent (in words), SF767: 50 μM inhibitor; for chemosensitivity to mafosfamide (in words), SF767: 10 μM inhibitor + mafosfamide. In kind it is cell-based.
[8] abbreviates: read-out: ALDH3A1 IC50 (micromolar), Table 4(B), hits from ChemBridge screen.
The mark [9] stands for this setting: read-out: IC50 (micromolar) ALDH3A1, Table 4, hits from ChemDiv screen.
[10] abbreviates: read-out: IC50 (micromolar) ALDH3A1, Tables 1A/1B, benzaldehyde substrate, S.D. for three assays in parentheses.
Setting [11] is: read-out: IC50 against ALDH3A1, benzaldehyde substrate.

T1 sequence (P30838 whole entry): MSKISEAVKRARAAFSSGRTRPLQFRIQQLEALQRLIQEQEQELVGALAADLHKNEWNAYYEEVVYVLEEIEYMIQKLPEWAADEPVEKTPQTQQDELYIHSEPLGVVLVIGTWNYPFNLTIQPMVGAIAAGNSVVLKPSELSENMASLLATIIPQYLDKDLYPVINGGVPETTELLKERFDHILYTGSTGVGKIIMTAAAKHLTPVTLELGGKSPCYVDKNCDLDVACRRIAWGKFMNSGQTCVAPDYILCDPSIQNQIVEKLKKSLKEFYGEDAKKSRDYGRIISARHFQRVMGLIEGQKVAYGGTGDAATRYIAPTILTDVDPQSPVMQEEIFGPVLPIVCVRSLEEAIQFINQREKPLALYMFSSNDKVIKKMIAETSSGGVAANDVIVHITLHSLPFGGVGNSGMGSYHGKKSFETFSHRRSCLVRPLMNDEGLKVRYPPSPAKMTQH

With `N#CSCCCCOc1ccc(Cl)cc1` [CB1], in data set [1] (setting [8]), the IC50 stood at 3.7 µM.
Same read-out and setting: for `O=[N+](O)c1ccccc1CNc1ccc(F)c(F)c1` [CB2] the value was 5.2 µM.
Consider `Cc1cc(OCC(=O)O)c([N+](=O)O)cc1Cl` [CB3], for which the inhibition at 10 µM in data set [2] turned out to be 55%.
Same read-out and setting: the figure for `Cc1cc(C2CNc3ccccc32)oc(=O)c1` (centres unmarked) [CB4] is 60%; for `Nc1ccc(-c2cc(C(=O)O)c3ccccc3n2)cc1` [CB5] it is 34%; for `N#CSC1CN=C(NC2CCCCC2)S1` (centres unmarked) [CB6] it is 6%.
With `Cc1nc2ccccc2n1S(=O)(=O)c1ccc(F)cc1` [CB7, 1-[(4-fluorophenyl)sulfonyl]-2-methyl-1H-benzimidazole], the “solubility (in words)” value in data set [3] is “very good solubility”.
As to `N#CC(Cc1ccc(S(=O)(=O)c2ccc(Cl)cc2)cc1)c1nc2ccccc2[nH]1` (centres unmarked) [CB10], the inhibition at 10 µM in data set [2] stood at 58%.
On the same count and under the same terms, the figure for `OCCCn1c(-c2ccc(Cl)cc2)cn2c3ccccc3nc12` [CB11] is 61%.
Regarding `CCN(CC)CCC(=O)c1ccc2c(c1)OCO2` [CB12], the IC50 in data set [1] (setting [8]) turned out to be 3.2 µM.
The same measure, in the same setting: the figure for `O=C(CCN1CCOCC1)c1ccc2c(c1)OCCO2` [CB13] is 11.7 µM.
As to `O=[N+]([O-])c1ccc(N2CCCC2)c(F)c1` [CB14], the inhibition at 10 µM in data set [2] is 47%.
Same read-out and setting: for `CCNC(=O)CC1Nc2cc(C)c(C)cc2NC1=O` (centres unmarked) [CB16] the value was 50%.
The same measure, in the same setting: for `CN(CC(=O)[O-])c1nc2ccc([N+](=O)O)cc2s1` [CB21] the value was 58%; for `O=C(CSc1ccccc1)NCc1ccco1` [CB23], 65%; for `CCOc1cc(/C=C/[N+](=O)O)ccc1O` [CB26], 45%.
Same read-out and setting: for `c1ccc(CNc2nc(-c3ccccn3)cs2)cc1` [CB27] the value was 43%; for `O=C(O)CCc1ccc(-c2ccc(F)cc2)o1` [CB32], 36%.
As to `C=CCOc1ccc(/C=C/[N+](=O)O)cc1OC` [CB35], the inhibition at 10 µM in data set [2] stood at 46%.
The same measure, in the same setting: the figure for `C#CCOc1ccc(/C=C/[N+](=O)O)cc1` [CB36] is 30%; for `Cc1ccc(/C=C/[N+](=O)O)cc1Br` [CB37] it is 30%.
Take `COc1ccc(/C=C/[N+](=O)O)cc1Br` [CB38]: the inhibition at 10 µM in data set [2] worked out at 40%.
The same measure, in the same setting: the figure for `Cc1ccc(-c2ccc(/C=C/[N+](=O)O)o2)c(Br)c1` [CB39] is 32%; for `COc1ccc(/C=C/[N+](=O)O)cc1I` [CB40] it is 30%.
Same read-out and setting: the figure for `CN(C)c1ccc(/C=C/[N+](=O)O)cc1Br` [CB41] is 45%; for `C#CCOc1c(Cl)cc(/C=C/[N+](=O)O)cc1OC` [CB42] it is 46%.
As for `O=C1Nc2ccccc2C12Oc1ccccc1C1CC(c3ccccc3)=NN12` (centres unmarked) [CD3], the IC50 in data set [4] was 41.8 µM; in data set [5], 6.5 µM; in data set [1] (setting [9]), 38.5 µM.
The matching figures for `CCCSc1nnc2c(n1)OC(C(=O)c1ccc(OC)cc1)Nc1ccccc1-2` (centres unmarked) [CD4]: 1.4 µM, 21.2 µM and 2.5 µM.
As for `CCSc1nnc2c(n1)OC(C(=O)c1ccc(OC)cc1)Nc1ccccc1-2` (centres unmarked) [CD5], the IC50 in data set [4] came out at 1.2 µM; in data set [5] it was 8.2 µM; in data set [1] (setting [9]) it was 1.5 µM.
As to `CCOC(=O)CN1C(=O)C(O)(CC(=O)c2ccccn2)c2ccccc21` (centres unmarked) [CD7], the values for the IC50 in data set [5] and in data set [1] (setting [9]) were 0.7 µM and 25.5 µM, respectively.
For `CCOC(=O)CN1C(=O)C(O)(CC(=O)c2ccncc2)c2ccccc21` (centres unmarked) [CD8], the IC50 in data set [4] was 11.1 µM; in data set [5], 0.8 µM; in data set [1] (setting [9]) it was 6.3 µM.
For `Cc1ccc(S(=O)(=O)NC(O)C(=O)c2cccs2)cc1` (centres unmarked) [CD10] the same measures were 2.2 µM, 4 µM and 3.4 µM.
The matching figures for `O=C(NC(O)C(=O)c1cccs1)c1cccnc1` (centres unmarked) [CD11]: 6.5 µM, 5.9 µM and 10.2 µM.
The matching figures for `O=C(NC(O)C(=O)c1cccs1)c1ccncc1` (centres unmarked) [CD12]: 5.3 µM, 4.2 µM and 5.6 µM.
Turning to `CCn1c(-c2ccc(OC)c(F)c2)cs/c1=N/c1ccccc1` [CD13], the 50% inhibitory concentration (IC50) in data set [4] stood at 7.3 µM; in data set [5] it was 6.3 µM; in data set [1] (setting [9]), 60 µM.
For `CCCC1C(C#N)=C(SCC(=O)c2ccc(Br)cc2)NC(C)=C1C(C)=O` (centres unmarked) [CD14] the same measures were 13.7 µM, 10.4 µM and 71.5 µM.
On to `Cc1cccc(C(=O)CN2CCN(S(=O)(=O)c3cc(Cl)ccc3Cl)CC2)c1` [CD20], for which the half-inhibitory concentration (IC50) worked out at 33 µM in data set [5] and 41 µM in data set [1] (setting [9]).
For the molecule `CNS(=O)(=O)c1ccc(Nc2ccc(F)cc2)c([N+](=O)[O-])c1` [Compound 2], the “inhibitory potential toward ALDH2 activity in vitro (in words)” value in data set [4] is “no inhibitory potential”. Also, the “inhibitory potential / activity toward ALDH1A1 in vitro (in words)” value in data set [5] is on record as “no inhibitory potential”. The “sensitivity to mafosfamide on co-treatment (in words), A549” value in data set [6] (50 μM inhibitor + mafosfamide) is “increased sensitivity to mafosfamide”. The “effect on cell proliferation as single agent (in words), A549” value in data set [6] is reported as “little effect on cell proliferation”. Moreover, in data set [7] (50 μM inhibitor + […] mafosfamide, FIG. 4B), the “sensitivity to mafosfamide on co-treatment (in words), SF767” value was “increased sensitivity to mafosfamide”. In data set [7] (FIG. 4B), the “effect on cell proliferation as single agent (in words), SF767” value was “little effect on cell proliferation”. Moreover, the “concentration of homogenous solution easily formed” value in data set [3] is ≥ 100 µM. The IC50 in data set [1] (setting [10]) and in data set [1] (setting [11]) was 26 µM in each case.
Regarding `Cc1ccc(C)c(Nc2ccc(S(C)(=O)=O)cc2[N+](=O)[O-])c1` [Compound 7], in data set [5] (Tables 1A/1B, propionaldehyde substrate, S.D. in parentheses), the “IC50 (micromolar) ALDH1A1” value is given as “WA (WA represents (30-50) % activation shown by 100 μM compound to respective enzymes)”.
In the case of `CNS(=O)(=O)c1ccc(Nc2ccc(OC)cc2)c([N+](=O)[O-])c1` [Compound 10], the “inhibitory potential toward ALDH2 activity in vitro (in words)” value in data set [4] is “no inhibitory potential”. Further, in data set [5], the “inhibitory potential / activity toward ALDH1A1 in vitro (in words)” value was “no inhibitory potential”. Moreover, the “effect on cell proliferation as single agent (in words), A549” value in data set [6] was “little effect on cell proliferation”. Besides, the “effect on cell proliferation as single agent (in words), SF767” value in data set [7] (FIG. 4B) is recorded as “little effect on cell proliferation”. Besides, in data set [3], the “concentration of homogenous solution easily formed” value was ≥ 100 µM. In addition, the IC50 in data set [1] (setting [10]) was found to be 31.7 µM; in data set [1] (setting [11]), 31 µM.
Regarding `Cc1nc2ccccc2n1S(=O)(=O)c1ccc(Cl)cc1` [Compound A20], in data set [7], the “chemosensitivity to mafosfamide (in words), SF767” value is “significantly increased chemosensitivity”.
For `O=S(=O)(c1ccc(Cl)cc1)n1cnc2ccccc21` [Compound A21], in data set [7], the “chemosensitivity to mafosfamide (in words), SF767” value is listed as “significantly increased chemosensitivity”.
The same measure, in the same setting: the entry for `CC(=O)c1nc2ccccc2n1S(=O)(=O)c1ccc(Cl)cc1` [Compound B37] is “significantly increased chemosensitivity”.
